In PMC11413854, “Reversible Control of Native GluN2B-Containing NMDA Receptors with Visible Light” (ACS Chemical Neuroscience, 2024):
“And” between values parts separate entries of the source, which are not always exact repeats. Identical values can stand only once. Like-named read-outs stand apart in the source and are kept apart here.

Target: T1, GluN1/GluN2B receptors (UniProt P35439+Q01097)
T1 construct: expressed in transfected cells; host or cells: HEK-293 cells (ECACC, Cat #96121229)
Assay: Whole-cell patch-clamp and photomodulation in HEK cells expressing GluN1/GluN2B
Assay type: cell-based, rat GluN1, mouse GluN2B
Details: for inhibition of GluN1/GluN2B currents in HEK cells: 2 µM; for inhibition at 2 µM: HEK293, 2 µM, read-out: inhibition of GluN1/GluN2B currents in HEK cells
From the text: Now that we have established the photodependence of OptoNAM-3 action, we tested whether this compound could be used to perform real-time modulation of NMDAR activity with light. To answer this question, we turned to mammalian cells, whose transparency allows homogeneous illumination of all membrane-expressed NMDARs. OptoNAM-3 was perfused together with agonists glutamate and glycine on HEK cells expressing GluN1/GluN2B receptors. […] OptoNAM-3 thus allows real-time and reversible inhibition of GluN1/GluN2B activity with light. By plotting the effect of different concentrations of OptoNAM-3 in the dark and during UV illumination, we observed a 20-fold UV-induced shift of OptoNAM-3 IC50 compared to the dark condition (Figure 4C). […] The stronger photodependence of OptoNAM-3 action on HEK cells might stem either from differences between cellular expression systems (Xenopus oocytes vs HEK cells) or from the different irradiation contexts (in solution for experiments in Xenopus oocytes and in a cellular context for HEK cells) (see below).
HEK293 cells were used for heterologous expression of recombinant NMDA receptors studies using whole-cell patch-clamp. Wild-type NMDARs were expressed in HEK-293 cells (obtained from ECACC, Cat #96121229). HEK cells were cultured in DMEM + glutamax medium supplemented with 10% fetal bovine calf serum and 1% penicillin/streptomycin (5000 U/mL) and cultured under standard cell culture conditions (5% CO2, 37 °C). Transfections were performed using polyethylenimine (PEI) in a cDNA/PEI ratio of 1:3 (v/v). Cells were cotransfected with a DNA mixture containing plasmids encoding wild-type GluN1, wild-type GluN2A or GluN2B, and eGFP. The total amount of DNA was 1.0 μg per 500 μL of transfected medium containing […] diameter coverslip, and the mass ratio of GluN1:GluN2B:eGFP was 1:2:1 (1:1:1 for GluN2A). 150 μM of D-APV was added to the culture medium after transfection.
Receptor functionality, OptoNAM-3 photodependence (dark then UV light) of activity, and association/dissociation kinetics (with and without UV light) were assessed in patch-clamp recordings of lifted whole cells 24–72 h post transfection (cells were not lifted for the 2 light cycles protocol, i.e., when “perfusion turned off” was written below current traces). Positively transfected cells were visualized by GFP fluorescence. The extracellular solution contained (in mM) 140 NaCl, 2.8 KCl, 1 CaCl2, 10 HEPES, 20 sucrose, and 0.01 DTPA (290–300 mOsm), pH adjusted to 7.3 using NaOH. […] Currents were sampled at 10 kHz and low-pass filtered at 2 kHz using an Axopatch 200B amplifier, a 1550B Digidata, and Clampex 10.6 (Molecular Devices). Agonists (100 μM glutamate and 100 μM glycine) were applied using a multibarrel solution exchanger (RSC 200; BioLogic). Recordings were performed at a holding potential of −60 mV and at room temperature.
Computer-controlled light pulses during electrophysiological recordings were provided from high power sensitive LEDs (CoolLED pE-4000: 4 channels each controlling 4 wavelengths from 365 to 770 nm). The LED port was directly coupled via a microscope adaptor to the fluorescence port of an inverted IX73 Olympus microscope. The output beam of the LED entry was directed toward the sample thanks to a mirror (Chroma) and applied to the center of the recording dish through a 10× objective (irradiance ∼4 mW/mm^2 for 365, 385, and 435 nm; ∼6.5 mW/mm^2 for 460 nm; ∼2 mW/mm^2 for 490 and 525 nm; ∼1.5 mW/mm^2 for 500 nm, and ∼4.5 mW/mm^2 for 550 and 580 nm) (Olympus, 0.30 N.A.). Light power was measured in the center of the recording dish plane with an optical power meter (1916-C, Newport) equipped with a calibrated UV/D detector, and irradiance was obtained upon dividing light power by the illuminated field of the microscope 10× objective (19 mm^2).
Data were collected and analyzed using pClamp 10.5 (Molecular Devices) and fitted using Sigmaplot 11.0 (SSPS). […]

[1] = 550 nm illumination from UV state

T1 sequence (Q01097 27-1482, other chains not shown): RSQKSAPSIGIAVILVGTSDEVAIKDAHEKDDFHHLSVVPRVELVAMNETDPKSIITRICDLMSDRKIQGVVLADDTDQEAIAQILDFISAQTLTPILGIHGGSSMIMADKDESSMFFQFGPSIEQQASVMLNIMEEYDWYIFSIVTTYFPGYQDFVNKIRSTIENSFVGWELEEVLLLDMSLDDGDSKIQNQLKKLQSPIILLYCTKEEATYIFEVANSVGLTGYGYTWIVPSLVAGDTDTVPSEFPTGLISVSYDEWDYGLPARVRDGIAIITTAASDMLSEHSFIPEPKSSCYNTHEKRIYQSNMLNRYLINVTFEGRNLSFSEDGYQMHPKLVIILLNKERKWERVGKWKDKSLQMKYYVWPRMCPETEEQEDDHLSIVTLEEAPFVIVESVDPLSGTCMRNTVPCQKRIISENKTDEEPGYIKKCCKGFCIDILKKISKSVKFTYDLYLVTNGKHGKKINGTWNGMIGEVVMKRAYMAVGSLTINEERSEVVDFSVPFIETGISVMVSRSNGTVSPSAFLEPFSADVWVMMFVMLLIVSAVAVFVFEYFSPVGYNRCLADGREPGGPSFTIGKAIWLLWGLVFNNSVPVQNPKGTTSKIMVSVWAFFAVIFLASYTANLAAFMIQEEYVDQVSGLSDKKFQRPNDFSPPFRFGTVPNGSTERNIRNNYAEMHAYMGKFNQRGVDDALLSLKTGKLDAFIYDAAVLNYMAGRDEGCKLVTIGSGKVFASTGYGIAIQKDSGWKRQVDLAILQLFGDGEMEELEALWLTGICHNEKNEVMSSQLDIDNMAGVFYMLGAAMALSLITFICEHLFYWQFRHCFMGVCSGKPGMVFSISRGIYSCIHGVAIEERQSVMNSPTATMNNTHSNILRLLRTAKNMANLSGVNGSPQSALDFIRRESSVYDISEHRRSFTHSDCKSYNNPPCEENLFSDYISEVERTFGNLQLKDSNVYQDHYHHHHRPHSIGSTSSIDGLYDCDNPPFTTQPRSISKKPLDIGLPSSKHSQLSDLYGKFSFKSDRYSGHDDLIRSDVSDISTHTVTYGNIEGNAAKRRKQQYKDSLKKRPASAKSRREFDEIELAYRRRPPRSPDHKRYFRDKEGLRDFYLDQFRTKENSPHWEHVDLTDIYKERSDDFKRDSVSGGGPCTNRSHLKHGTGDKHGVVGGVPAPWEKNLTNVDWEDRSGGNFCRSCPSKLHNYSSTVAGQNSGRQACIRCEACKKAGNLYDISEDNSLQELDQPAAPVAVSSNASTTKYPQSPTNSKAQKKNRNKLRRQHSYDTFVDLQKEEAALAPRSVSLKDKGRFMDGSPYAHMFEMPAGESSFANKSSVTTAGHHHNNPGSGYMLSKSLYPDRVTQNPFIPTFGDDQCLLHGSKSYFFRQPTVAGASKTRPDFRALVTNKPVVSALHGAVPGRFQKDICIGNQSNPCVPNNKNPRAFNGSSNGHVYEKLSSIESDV

inhibition of GluN1/GluN2B currents in HEK cells [1]: 58.559% | inhibition of GluN1/GluN2B currents in HEK cells (dark): 76.928% | inhibition of GluN1/GluN2B currents in HEK cells (under 365 nm illumination): 23.428% | inhibition at 2 µM [1]: 59% | inhibition at 2 µM (dark): 77% | inhibition at 2 µM (under 365 nm illumination): 23% | tau off of inhibition relief under UV illumination (HEK cells, 365 nm): 0.814 s | tau off of inhibition relief by washout in the dark (HEK cells, dark): 30.520 s | Relative current (IOpto/I0) ([OptoNAM-3] 0.050 µM, HEK cells, 365 nm illumination): 0.936 | Relative current (IOpto/I0) ([OptoNAM-3] 0.050 µM, HEK cells, dark PSS (trans)): 0.679 | Relative current (IOpto/I0) ([OptoNAM-3] 0.125 µM, HEK cells, 365 nm illumination): 0.926 | Relative current (IOpto/I0) ([OptoNAM-3] 0.125 µM, HEK cells, dark PSS (trans)): 0.513 | Relative current (IOpto/I0) ([OptoNAM-3] 0.300 µM, HEK cells, 365 nm illumination): 0.848 | Relative current (IOpto/I0) ([OptoNAM-3] 0.300 µM, HEK cells, dark PSS (trans)): 0.435 | Relative current (IOpto/I0) ([OptoNAM-3] 0.500 µM, HEK cells, dark PSS (trans)): 0.261 | Relative current (IOpto/I0) ([OptoNAM-3] 1.000 µM, HEK cells, 365 nm illumination): 0.722 | Relative current (IOpto/I0) ([OptoNAM-3] 1.000 µM, HEK cells, dark PSS (trans)): 0.205 | Relative current (IOpto/I0) ([OptoNAM-3] 1.500 µM, HEK cells, 365 nm illumination): 0.713 | Relative current (IOpto/I0) ([OptoNAM-3] 1.500 µM, HEK cells, dark PSS (trans)): 0.181 | Relative current (IOpto/I0) ([OptoNAM-3] 2.000 µM, HEK cells, 365 nm illumination): 0.705 | Relative current (IOpto/I0) ([OptoNAM-3] 2.000 µM, HEK cells, dark PSS (trans)): 0.166 | Relative current (IOpto/I0) ([OptoNAM-3] 2.500 µM, HEK cells, 365 nm illumination): 0.442 | Relative current (IOpto/I0) ([OptoNAM-3] 2.500 µM, HEK cells, dark PSS (trans)): 0.034 | IC50 (cell illuminated at 365 nm, read-out: IC50 on GluN1/GluN2B in HEK cells illuminated at 365 nm): 2.95 µM and 3 µM | IC50 (dark, read-out: IC50 on GluN1/GluN2B in HEK cells in the dark): 0.15 µM
Structure (SMILES): c1ccc(/N=N/c2ccc(CCNc3ccncc3)cc2)cc1 [OptoNAM-3, (E)-N-(4-(Phenyldiazenyl)phenethyl)pyridin-4-amine]
